This assay deals with T1, STK32B (YANK2) (Homo sapiens, UniProt Q9NY57).
T1 construct: purchased Thermo Fisher Scientific (Life Technologies) SelectScreen
The assay is described as follows: SelectScreen LanthaScreen. It counts as binding. To be noted: read-out: % displacement. In a few lines:
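NU5455 was profiled across the SelectScreen Broad panel of kinase activity and binding assays. Z'LYTE reactions such as CSF1R ran at apparent Km ATP, while the Adapta CAMK1 assay used ATP listed as 10. Values are given as percent.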
Background: In TR-FRET formats the signal depends on donor and acceptor labels being close together.

T1 sequence (Q9NY57 whole entry): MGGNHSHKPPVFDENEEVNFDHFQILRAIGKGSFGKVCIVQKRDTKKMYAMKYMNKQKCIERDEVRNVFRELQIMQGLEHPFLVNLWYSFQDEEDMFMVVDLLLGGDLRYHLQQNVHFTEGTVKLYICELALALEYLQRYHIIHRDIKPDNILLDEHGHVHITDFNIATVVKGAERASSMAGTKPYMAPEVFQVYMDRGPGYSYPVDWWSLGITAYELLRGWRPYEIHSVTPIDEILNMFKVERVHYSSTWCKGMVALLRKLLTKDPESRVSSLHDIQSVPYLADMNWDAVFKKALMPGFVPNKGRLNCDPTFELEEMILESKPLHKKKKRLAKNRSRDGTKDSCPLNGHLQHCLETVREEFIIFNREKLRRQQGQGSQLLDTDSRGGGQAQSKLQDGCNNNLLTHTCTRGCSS

In the case of `CN(C(=O)CN1CCOCC1)c1ccc2sc3c(-c4cccc5c(=O)cc(N6CC7CCC(C6)O7)oc45)cccc3c2c1` [NU5455], the inhibition at 1 µM was -1.4%.
